In patent US8962674B2 (Tokyo Institute of Technology, priority 2006, dated 2015):

Legend:
recombinant human BACE-1 = recombinant human BACE-1 (Homo sapiens (Human), UniProt P56817); test: Calculation of 50% inhibitory concentration (IC50) of BACE-1 (Test Example 5); format: biochemical; details: 37° C., 2.5 hr, fluorescent substrate peptide
Protocol: Compounds were dissolved in 0.1 M sodium acetate buffer (with 150 mM sodium chloride, pH 4.5) to each concentration with DMSO (concentration of compounds: 0.3, 0.9, 3.0, 9.0, and 30.0). The final concentration of DMSO was 10%. The solution with no compound was used as a negative control. 15 μL of these solutions, recombinant human BACE-1 (1.0 U/ml, Invitrogen), and the fluorescent substrate peptide (2.5 nM) were mixed in a black 384-well plate (Costar). Then, mixtures were incubated in the dark at 37° C. for 2.5 hr. The fluorescence intensities of the mixtures were measured at 540 nm for excitation and at 590 nm for emission. The inhibition ratio was calculated as a percentage of the negative control. The sequence of the peptide was […] and labeled with Cy3 at Ser-1 and with Cy5Q at Lys-9. Final concentrations of compounds were as follows: […].

[1] = molecular target: recombinant human β-secretase (rhBACE-1) (Homo sapiens (Human), UniProt P56817); test: β-Secretase enzyme inhibition assay (Test Example 1); format: biochemical; details: compound solution 3 μM (FIG. 1 legend: 1.0 μM), 37° C., 2 hr, fluorescent substrate peptide
Chain of recombinant human β-secretase (rhBACE-1) (P56817 46-501): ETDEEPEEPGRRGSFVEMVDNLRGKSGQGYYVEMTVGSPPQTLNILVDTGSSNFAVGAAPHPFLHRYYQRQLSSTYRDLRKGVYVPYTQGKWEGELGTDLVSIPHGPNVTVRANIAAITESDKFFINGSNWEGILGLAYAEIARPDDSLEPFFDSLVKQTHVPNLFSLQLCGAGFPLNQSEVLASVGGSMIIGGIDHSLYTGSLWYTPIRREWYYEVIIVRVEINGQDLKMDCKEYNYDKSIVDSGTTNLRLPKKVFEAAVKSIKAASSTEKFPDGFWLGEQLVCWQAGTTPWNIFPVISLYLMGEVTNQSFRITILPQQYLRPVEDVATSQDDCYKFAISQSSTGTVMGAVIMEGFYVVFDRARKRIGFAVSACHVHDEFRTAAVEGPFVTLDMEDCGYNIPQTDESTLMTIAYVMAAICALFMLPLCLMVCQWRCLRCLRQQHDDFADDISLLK
Protocol: β-Secretase Enzyme Inhibition Assay
Compounds were dissolved in dimethylsulfoxide (DMSO), and further diluted in 0.1 M sodium acetate buffer (with 150 mM sodium chloride, pH 4.5). The solution with no compound was used as a negative control. Then, 100 μL of these solutions (compound concentration: 3 μM), 1 μL of recombinant human β-secretase (rhBACE-1, R&D), and 5 μL of the fluorescent substrate peptide were mixed in a black 96-well plate (Nunc). After mixtures were incubated in the dark at 37° C. for 2 hr, the fluorescence intensities of the mixtures were measured by fluorescence microplate reader (Wallac) at 540 nm for excitation and at 590 nm for emission. The inhibition ratio was calculated as a percentage of the negative control. The sequence of the peptide was […] and labeled with fluorescent donor (Cy3) at Ser-1 and with quencher (Cy5Q) at Lys-9, respectively (Invitrogen).

[2] = tested on: cerebral cortex cells of embryonic Wistar rat; test: Cytoprotection from Aβ1-42-induced cell cytotoxicity, MTT (Test Example 4); format: cell-based; details: compound 24 hr, then 5 μM Aβ1-42 for 48 hr
Protocol: Cytoprotection from Aβ1-42-Induced Cell Cytotoxicity
Cerebral cortex was obtained from 19-20 day-old embryonic Wistar rat. The tissue was minced, dissociated using scalpel blades and Pasteur pipette, and centrifuged at 100 rpm. Precipitated cells were filtered using […] cell strainer, and single cells were prepared. These cells were suspended in Eagle's Minimum Essential Medium (EMEM) containing 10% Fetal bovine serum, and plated into 48-well tissue culture plates (Becton Dickinson) at 200 μL/well and 1.7×10^5 cells/cm^2. Cultures were incubated at 37° C. in a humidified atmosphere of 5% CO2.
After 3, 5, and 7 days in culture, the medium was replaced.
After 9 days, compounds were dissolved in DMSO and diluted in culture media so that the final concentration of DMSO in culture media was 0.1%, and each solution was added to each well at […] for 24 hr. The control solution contained 0.1% DMSO.
After 24 hr, Aβ1-42 was dissolved in a 0.1% NH3 solution at a concentration of 500 μM and diluted in culture media to a final concentration of 5 μM, and the Aβ solution was added to each well at […] for 48 hr. After 48 hr, cultures were treated with 0.5% MTT solution (Nacalai Tesque) for 35 min. The MTT solution was replaced with 2-propanol (200 μL), and the culture plates were shook to dissolve formazan. Absorption of the solution was measured at 570 nm.

Chain of recombinant human BACE-1 (P56817 46-501): as above

O=C(/C=C/c1cc(O)ccc1[N+](=O)[O-])CC(=O)/C=C/c1cc(O)ccc1[N+](=O)[O-] [CU381, (1E,6E)-1,7-bis(5-hydroxy-2-nitrophenyl)hepta-1,6-diene-3,5-dione]
melting point: 253 to 262 °C
inhibitory effect on BACE-1 activity (IC50 shown in FIG. 2) (recombinant human BACE-1): inhibitory effect on BACE-1 activity at relatively low concentration

O=C(/C=C/c1ccc(O)cc1)CC(=O)/C=C/c1cc(OCc2ccccc2)ccc1Br [CU531, (1E,6E)-1-(5-benzyloxy-2-bromophenyl)-7-(4-hydroxyphenyl)hepta-1,6-diene-3,5-dione]
inhibitory effect on BACE-1 activity (IC50 shown in FIG. 2) (recombinant human BACE-1): inhibitory effect on BACE-1 activity at relatively low concentration

O=C(/C=C/c1cc(O)ccc1[N+](=O)[O-])CC(=O)CCc1ccc(O)cc1 [CU530, (E)-1-(5-hydroxy-2-nitrophenyl)-7-(4-hydroxyphenyl)hept-1-ene-3,5-dione]
melting point: 62 to 70 °C
inhibitory effect on BACE-1 activity (IC50 shown in FIG. 2) (recombinant human BACE-1): inhibitory effect on BACE-1 activity at relatively low concentration

O=C(/C=C/c1ccc(O)cc1)CC(=O)/C=C/c1ccc2cc[nH]c2c1 [CU189, (1E,6E)-1-(4-hydroxyphenyl)-7-(1H-indol-6-yl)hepta-1,6-diene-3,5-dione]
melting point: 238 to 243 °C
inhibition of BACE-1 enzyme activity (inhibitory activities (%) shown in FIG. 1) [1]: strongly inhibited
inhibitory effect on BACE-1 activity (IC50 shown in FIG. 2) (recombinant human BACE-1): inhibitory effect on BACE-1 activity at relatively low concentration

COc1ccc(/C=C/C(=O)CC(=O)/C=C/c2ccc(O)cc2)c2ccccc12 [CU116, (1E,6E)-1-(4-hydroxyphenyl)-7-(4-methoxynaphthalen-1-yl)hepta-1,6-diene-3,5-dione]
melting point: 193 to 198 °C
inhibition of BACE-1 enzyme activity (inhibitory activities (%) shown in FIG. 1) [1]: strongly inhibited

COc1cc(/C=C/C(=O)CC(=O)/C=C/c2cc(O)ccc2[N+](=O)[O-])ccc1O [CU132, (1E,6E)-1-(4-hydroxy-3-methoxyphenyl)-7-(5-hydroxy-2-nitrophenyl)hepta-1,6-diene-3,5-dione]
melting point: 147 to 152 °C
inhibitory effect on BACE-1 activity (IC50 shown in FIG. 2) (recombinant human BACE-1): inhibitory effect on BACE-1 activity at relatively low concentration

O=C(/C=C/c1ccc(O)cc1)CC(=O)/C=C/c1c[nH]c2cccc([N+](=O)[O-])c12 [CU461, (1E,6E)-1-(4-hydroxyphenyl)-7-(4-nitro-1H-indol-3-yl)hepta-1,6-diene-3,5-dione]
melting point: 228 to 232 °C
inhibitory effect on BACE-1 activity (IC50 shown in FIG. 2) (recombinant human BACE-1): inhibitory effect on BACE-1 activity at relatively low concentration

COc1cc(/C=C/C(=O)CC(=O)/C=C/c2cccn2C)ccc1O [CU121, (1E,6E)-1-(4-hydroxy-3-methoxyphenyl)-7-(1-methyl-1H-pyrrol-2-yl)hepta-1,6-diene-3,5-dione]
melting point: 131 to 132 °C
inhibition of BACE-1 enzyme activity (inhibitory activities (%) shown in FIG. 1) [1]: strongly inhibited

COc1cc(/C=C/C(=O)CC(=O)/C=C/c2ccc(O)c(C)c2)ccc1O [CU031, (1E,6E)-1-(4-hydroxy-3-methoxyphenyl)-7-(4-hydroxy-3-methylphenyl)hepta-1,6-diene-3,5-dione]
melting point: 173 to 175 °C
inhibition of BACE-1 enzyme activity (inhibitory activities (%) shown in FIG. 1) [1]: strongly inhibited

COc1cc(/C=C/C(=O)CC(=O)/C=C/c2ccc(O)c(OC)c2)ccc1O [curcumin, reference compound]
MEC, minimal effective concentration (cytoprotection) [2]: 10 µM

O=C(/C=C/c1ccc2ccn(Cc3ccccc3)c2c1)CC(=O)CCc1ccc(O)cc1 [CU520, (E)-1-(1-benzyl-1H-indol-6-yl)-7-(4-hydroxyphenyl)hept-1-ene-3,5-dione]
melting point: 45 to 50 °C
inhibitory effect on BACE-1 activity (IC50 shown in FIG. 2) (recombinant human BACE-1): inhibitory effect on BACE-1 activity at relatively low concentration

O=C(/C=C/c1ccc(O)cc1)CC(=O)/C=C/c1cc(O)ccc1Br [CU532, (1E,6E)-1-(2-bromo-5-hydroxyphenyl)-7-(4-hydroxyphenyl)hepta-1,6-diene-3,5-dione]
melting point: 182 to 186 °C
inhibitory effect on BACE-1 activity (IC50 shown in FIG. 2) (recombinant human BACE-1): inhibitory effect on BACE-1 activity at relatively low concentration

O=C(/C=C/c1ccc(O)cc1)CC(=O)/C=C/c1c[nH]c2ccccc12 [CU110, (1E,6E)-1-(4-hydroxyphenyl)-7-(1H-indol-3-yl)hepta-1,6-diene-3,5-dione]
melting point: 215 to 220 °C
inhibition of BACE-1 enzyme activity (inhibitory activities (%) shown in FIG. 1) [1]: strongly inhibited

O=C(/C=C/c1ccc(O)cc1)CC(=O)/C=C/c1cc(O)ccc1[N+](=O)[O-] [CU131, (1E,6E)-1-(4-hydroxyphenyl)-7-(5-hydroxy-2-nitrophenyl)hepta-1,6-diene-3,5-dione]
melting point: 187 to 194 °C
inhibitory effect on BACE-1 activity (IC50 shown in FIG. 2) (recombinant human BACE-1): inhibitory effect on BACE-1 activity at relatively low concentration

COc1ccc(/C=C/C(=O)CC(=O)/C=C/c2c(OC)cccc2OC)cc1O [CU104, (1E,6E)-1-(2,6-dimethoxyphenyl)-7-(3-hydroxy-4-methoxyphenyl)hepta-1,6-diene-3,5-dione]
melting point: 74 to 80 °C
inhibition of BACE-1 enzyme activity (inhibitory activities (%) shown in FIG. 1) [1]: strongly inhibited

COc1ccc(/C=C/C(=O)CC(=O)/C=C/c2cc(O)ccc2[N+](=O)[O-])cc1O [CU133, (1E,6E)-1-(3-hydroxy-4-methoxyphenyl)-7-(5-hydroxy-2-nitrophenyl)hepta-1,6-diene-3,5-dione]
melting point: 107 to 111 °C
inhibitory effect on BACE-1 activity (IC50 shown in FIG. 2) (recombinant human BACE-1): inhibitory effect on BACE-1 activity at relatively low concentration

O=C(/C=C/c1ccc(O)cc1)CC(=O)/C=C/c1ccc2[nH]ccc2c1 [CU187, (1E,6E)-1-(4-hydroxyphenyl)-7-(1H-indol-5-yl)hepta-1,6-diene-3,5-dione]
melting point: 222 to 226 °C
inhibition of BACE-1 enzyme activity (inhibitory activities (%) shown in FIG. 1) [1]: strongly inhibited

CCn1c2ccccc2c2cc(/C=C/C(=O)CC(=O)/C=C/c3ccc(O)c(OC)c3)ccc21 [CU017, (1E,6E)-1-(9-ethyl-9H-carbazol-3-yl)-7-(4-hydroxy-3-methoxyphenyl)hepta-1,6-diene-3,5-dione]
melting point: 165 to 169 °C
inhibition of BACE-1 enzyme activity (inhibitory activities (%) shown in FIG. 1) [1]: strongly inhibited

CN(C)c1ccc(/C=C/C(=O)CC(=O)/C=C/c2ccc(O)cc2)c([N+](=O)[O-])c1 [CU194, (1E,6E)-1-(4-dimethylamino-2-nitrophenyl)-7-(4-hydroxyphenyl)hepta-1,6-diene-3,5-dione]
melting point: 217 to 222 °C
inhibition of BACE-1 enzyme activity (inhibitory activities (%) shown in FIG. 1) [1]: strongly inhibited

O=C(/C=C/c1ccc(O)cc1)CC(=O)/C=C/c1ccccc1O [CU080, (1E,6E)-1-(2-hydroxyphenyl)-7-(4-hydroxyphenyl)hepta-1,6-diene-3,5-dione]
MEC, minimal effective concentration (cytoprotection) [2]: 1.0 µM

O=C(/C=C/c1ccc(O)cc1)CC(=O)/C=C/c1cc(OCc2ccccc2)ccc1[N+](=O)[O-] [CU475, (1E,6E)-1-(5-benzyloxy-2-nitrophenyl)-7-(4-hydroxyphenyl)hepta-1,6-diene-3,5-dione]
melting point: 168 to 172 °C
inhibitory effect on BACE-1 activity (IC50 shown in FIG. 2) (recombinant human BACE-1): inhibitory effect on BACE-1 activity at relatively low concentration

COc1ccc(/C=C/C(=O)CC(=O)/C=C/c2ccc3[nH]ccc3c2)cc1O [CU193, (1E,6E)-1-(3-hydroxy-4-methoxyphenyl)-7-(1H-indol-5-yl)hepta-1,6-diene-3,5-dione]
melting point: 182 to 185 °C
inhibition of BACE-1 enzyme activity (inhibitory activities (%) shown in FIG. 1) [1]: strongly inhibited

COc1ccc(/C=C/C(=O)CC(=O)/C=C/c2cc(O)cc(O)c2)cc1O [CU094, (1E,6E)-1-(3,5-dihydroxyphenyl)-7-(3-hydroxy-4-methoxyphenyl)hepta-1,6-diene-3,5-dione]
melting point: 190 to 193 °C
inhibition of BACE-1 enzyme activity (inhibitory activities (%) shown in FIG. 1) [1]: strongly inhibited
